Test results: ChEMBL document CHEMBL5537153, “Modifications to 1-(4-(2-Bis(4-fluorophenyl)methyl)sulfinyl)alkyl Alicyclic Amines That Improve Metabolic Stability and Retain an Atypical DAT Inhibitor Profile” (J Med Chem, 2024)
pKi: −log10 of the molar value.

What was measured:
[1] = species on record: Rattus norvegicus; assay: Selectivity ratio of Ki for SERT in Sprague-Dawley rat brainstem to Ki for DAT in Sprague-Dawley rat striatum
[2] = target: Sodium-dependent dopamine transporter (Rattus norvegicus, UniProt P23977); assay: Displacement of [3H]WIN35428 from DAT in Sprague-Dawley rat striatum incubated for 120 mins by scintillation counting analysis; type: tissue-based
Sodium-dependent dopamine transporter (Rattus norvegicus, UniProt P23977), sequence (P23977 whole entry): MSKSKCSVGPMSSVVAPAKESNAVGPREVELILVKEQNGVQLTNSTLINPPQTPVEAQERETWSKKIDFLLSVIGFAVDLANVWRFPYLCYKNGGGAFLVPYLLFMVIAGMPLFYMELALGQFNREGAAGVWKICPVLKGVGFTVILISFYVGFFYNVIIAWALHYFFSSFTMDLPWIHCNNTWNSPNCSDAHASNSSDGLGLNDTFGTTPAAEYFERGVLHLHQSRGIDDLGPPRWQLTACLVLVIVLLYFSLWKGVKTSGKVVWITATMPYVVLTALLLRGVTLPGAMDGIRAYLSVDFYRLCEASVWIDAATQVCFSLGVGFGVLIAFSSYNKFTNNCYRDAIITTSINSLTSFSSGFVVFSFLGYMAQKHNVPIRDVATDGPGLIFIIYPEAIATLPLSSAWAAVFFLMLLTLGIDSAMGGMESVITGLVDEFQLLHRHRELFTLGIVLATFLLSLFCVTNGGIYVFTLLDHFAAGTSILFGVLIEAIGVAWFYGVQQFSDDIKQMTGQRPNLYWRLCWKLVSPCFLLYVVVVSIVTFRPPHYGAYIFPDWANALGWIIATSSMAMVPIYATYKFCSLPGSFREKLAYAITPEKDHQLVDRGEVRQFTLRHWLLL

[3] = target: Sodium-dependent serotonin transporter (Rattus norvegicus, UniProt P31652); assay: Displacement of [3H]citalopram from SERT in Sprague-Dawley rat brainstem incubated for 60 mins by scintillation counting analysis; type: tissue-based
Sodium-dependent serotonin transporter, sequence (P31652 whole entry): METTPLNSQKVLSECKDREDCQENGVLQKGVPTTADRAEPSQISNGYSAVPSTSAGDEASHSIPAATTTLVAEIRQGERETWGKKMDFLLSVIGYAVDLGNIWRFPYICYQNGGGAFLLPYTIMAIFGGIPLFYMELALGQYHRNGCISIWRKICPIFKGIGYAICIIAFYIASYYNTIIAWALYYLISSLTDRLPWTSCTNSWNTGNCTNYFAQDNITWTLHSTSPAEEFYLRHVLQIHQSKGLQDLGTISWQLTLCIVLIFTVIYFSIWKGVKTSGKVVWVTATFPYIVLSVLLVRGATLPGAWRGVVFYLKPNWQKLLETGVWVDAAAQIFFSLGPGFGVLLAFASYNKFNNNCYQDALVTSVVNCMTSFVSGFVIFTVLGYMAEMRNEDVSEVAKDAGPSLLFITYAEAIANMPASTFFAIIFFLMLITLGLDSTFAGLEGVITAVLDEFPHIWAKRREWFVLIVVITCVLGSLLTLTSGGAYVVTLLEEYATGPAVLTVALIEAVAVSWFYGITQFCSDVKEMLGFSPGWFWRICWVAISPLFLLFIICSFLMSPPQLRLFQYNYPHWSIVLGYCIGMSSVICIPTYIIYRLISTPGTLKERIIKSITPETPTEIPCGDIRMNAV

[4] = Metabolic stability of the compound in rat liver microsomes assessed as parent compound remaining at 10 uM measured after 60 mins in presence of NADPH regenerating system by LC/MS analysis; type: ADME, Microsome; settings: for Stability: microsomes, 1 h, 10 µM
[5] = target: T1, Sodium-dependent dopamine transporter (Homo sapiens, UniProt Q01959); assay: Displacement of [3H]WIN35428 from wild type human DAT expressed in COS-7 cells incubated for 1.5 hrs by scintillation counting analysis; type: cell-based
T1 sequence (Q01959 whole entry): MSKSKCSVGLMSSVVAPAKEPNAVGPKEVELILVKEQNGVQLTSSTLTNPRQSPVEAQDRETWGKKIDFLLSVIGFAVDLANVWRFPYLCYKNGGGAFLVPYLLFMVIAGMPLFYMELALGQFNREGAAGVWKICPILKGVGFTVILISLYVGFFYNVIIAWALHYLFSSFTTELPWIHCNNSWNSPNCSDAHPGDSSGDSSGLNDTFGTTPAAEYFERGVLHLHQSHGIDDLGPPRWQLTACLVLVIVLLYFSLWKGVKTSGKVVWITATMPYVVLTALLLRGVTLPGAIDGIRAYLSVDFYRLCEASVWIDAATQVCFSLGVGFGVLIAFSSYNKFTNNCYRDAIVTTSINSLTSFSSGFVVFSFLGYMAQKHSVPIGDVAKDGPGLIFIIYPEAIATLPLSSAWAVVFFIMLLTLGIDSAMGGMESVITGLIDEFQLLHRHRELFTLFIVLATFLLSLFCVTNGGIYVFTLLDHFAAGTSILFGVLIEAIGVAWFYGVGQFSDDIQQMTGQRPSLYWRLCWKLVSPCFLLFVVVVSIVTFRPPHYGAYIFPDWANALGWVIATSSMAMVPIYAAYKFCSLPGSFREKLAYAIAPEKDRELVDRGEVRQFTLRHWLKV

[6] = Induction of behavioural effects in wild type C57BL/6J mouse assessed as locomotor activity at 3 to 30 mg/kg, ip measured every 10 mins for 3 hrs by open field test; type: toxicity, organism-based; settings: in vivo, dose 3-30 mg/kg
[7] = target: T1, Sodium-dependent dopamine transporter; assay: Inhibition of [3H]dopamine uptake from wild type human DAT expressed in COS-7 cells preincubated for 30 mins followed by [3H]dopamine addition and measured after 5 mins by beta scintillation counting analysis; type: cell-based
[8] = Displacement of [3H]WIN35428 from human DAT Y156F mutant expessed in COS-7 cells incubated for 1.5 hrs by beta scintillation counting analysis; type: cell-based
[9] = Displacement of [3H]nisoxetine from NET in Sprague-Dawley rat prefrontal cortex incubated for 180 mins by microbeta microscintillation counting analysis; type: tissue-based
[10] = Metabolic stability of the compound in mouse liver microsomes assessed as parent compound remaining at 10 uM measured after 60 mins in presence of NADPH regenerating system by LC/MS analysis; type: ADME, Microsome; settings: read-out: Stability
[11] = Inhibition of [3H]dopamine uptake from human DAT Y335A mutant expressed in COS-7 cells preincubated for 30 mins followed by [3H]dopamine addition and measured after 10 mins by beta scintillation counting analysis; type: cell-based
[12] = Induction of behavioural effects in wild type C57BL/6J mouse assessed as increase in locomotor activity at 30 mg/kg, ip measured after 20 mins by open field test; type: toxicity, organism-based; settings: in vivo

| Compound | Ratio Ki [1] | pKi [2] | pKi [3] | other results |
| --- | --- | --- | --- | --- |
| C[C@H](O)CN1CCC(CCSC(c2ccc(F)cc2)c2ccc(F)cc2)CC1 | 35 | 7.46 | 5.92 | – |
| Fc1ccc(C(SCCN2CCN(c3ncccn3)CC2)c2ccc(F)cc2)cc1 | 1 | 6.14 | 6.03 | – |
| OC(Cc1ccccc1)CN1CCC(CCSC(c2ccc(F)cc2)c2ccc(F)cc2)CC1 (configuration not stated) | 34 | 8.23 | 6.70 | – |
| CC(F)CN1[C@H](C)CN(CCSC(c2ccc(F)cc2)c2ccc(F)cc2)C[C@@H]1C (some centres not stated) | 99 | 6.87 | 4.87 | – |
| [O-][S+](CCC1CCN(CC(O)Cc2ccccc2)CC1)C(c1ccc(F)cc1)c1ccc(F)cc1 (configuration not stated) | 310 | 8.58 | 6.09 | Stability [4]: 68% |
| CC(O)CN1CCC(CCSC(c2ccc(F)cc2)c2ccc(F)cc2)CC1 (configuration not stated) | 29 | 7.17 | 5.72 | – |
| COc1ccc(CC(O)CN2CCCN(CCSC(c3ccc(F)cc3)c3ccc(F)cc3)CC2)cc1 (configuration not stated) | 22 | 7.78 | 6.44 | – |
| COc1ccc(N2CCN(CCSC(c3ccc(F)cc3)c3ccc(F)cc3)CC2)cc1 | 1 | 6.18 | 6.11 | – |
| CC(O)CN1CCC(CC[S+]([O-])C(c2ccc(F)cc2)c2ccc(F)cc2)CC1 (configuration not stated) | 89 | 6.74 | 4.79 | Stability [4]: 100%; pKi [5]: 6.45; Activity [6]: Non-Toxic; pKi [7]: 6.02; pKi [8]: 5.63; pKi [9]: < 4.00 |
| [O-][S+](CCN1CCN(c2ccncc2)CC1)C(c1ccc(F)cc1)c1ccc(F)cc1 (configuration not stated) | 1 | 5.61 | 5.46 | – |
| C[C@@H](O)CN1CCC(CC[S+]([O-])C(c2ccc(F)cc2)c2ccc(F)cc2)CC1 (some centres not stated) | 126 | 6.56 | 4.46 | – |
| OC(Cc1ccc(F)cc1)CN1CCCN(CCSC(c2ccc(F)cc2)c2ccc(F)cc2)CC1 (configuration not stated) | 35 | 7.84 | 6.30 | – |
| CC(O)CN1CCCN(CC[S+]([O-])C(c2ccc(F)cc2)c2ccc(F)cc2)CC1 (configuration not stated) | 62 | 6.38 | 4.59 | – |
| [O-][S+](CCN1CCCN(c2ncccn2)CC1)C(c1ccc(F)cc1)c1ccc(F)cc1 (configuration not stated) | 1 | 4.61 | 4.55 | – |
| [O-][S+](CCN1CCN(c2ncccn2)CC1)C(c1ccc(F)cc1)c1ccc(F)cc1 (configuration not stated) | 2 | 4.66 | 4.33 | – |
| [O-][S+](CCN1CCCN(CC(O)Cc2ccc(F)cc2)CC1)C(c1ccc(F)cc1)c1ccc(F)cc1 (configuration not stated) | 316 | 8.17 | 5.67 | remaining at 1 h, 10 µM [10]: 15% |
| CC(O)CN1CCN(CCSC(c2ccc(F)cc2)c2ccc(F)cc2)CC1 (configuration not stated) | – | – | – | remaining at 1 h, 10 µM [10]: 6% |
| CC(O)CN1CCN(CC[S+]([O-])C(c2ccc(F)cc2)c2ccc(F)cc2)CC1 (configuration not stated) | – | – | – | remaining at 1 h, 10 µM ([4]; liver microsomes, read-out: Stability): 72%; pKi [5]: 5.99; Activity [6]: Non-Toxic; pKi [7]: 6.04; pKi [8]: 5.12; pKi [11]: 4.84 |
| CC(O)CN1CCCN(CCSC(c2ccc(F)cc2)c2ccc(F)cc2)CC1 (configuration not stated) | 38 | 7.20 | 5.61 | pKi [5]: 7.10; remaining at 1 h, 10 µM [10]: 12%; pKi [7]: 6.79; pKi [8]: 6.63; pKi [11]: 5.48 |
| COc1ccc(N2CCN(CC[S+]([O-])C(c3ccc(F)cc3)c3ccc(F)cc3)CC2)cc1 (configuration not stated) | 3 | 5.20 | 4.74 | – |
| CC(O)CN1C(C)CN(CCSC(c2ccc(F)cc2)c2ccc(F)cc2)CC1C (configuration not stated) | – | – | – | remaining at 1 h, 10 µM [10]: 68% |
| OC(Cc1ccccc1)CN1CCCN(CCSC(c2ccc(F)cc2)c2ccc(F)cc2)CC1 (configuration not stated) | 40 | 8.14 | 6.54 | – |
| C[C@@H](O)CN1CCC(CCSC(c2ccc(F)cc2)c2ccc(F)cc2)CC1 | 9 | 7.07 | 6.12 | – |
| [O-][S+](CCN1CCN(CC(O)Cc2ccccc2)CC1)C(c1ccc(F)cc1)c1ccc(F)cc1 (configuration not stated) | – | – | – | pKi [5]: 7.97; remaining at 1 h, 10 µM [10]: 34%; Activity [12]: Toxic; pKi [7]: 9.09; pKi [8]: 6.94; pKi [11]: 6.27 |
| [O-][S+](CCN1CCCN(CC(O)Cc2ccccc2)CC1)C(c1ccc(F)cc1)c1ccc(F)cc1 (configuration not stated) | 421 | 8.08 | 5.45 | pKi [5]: 7.49; Activity [6]: Non-Toxic; remaining at 1 h, 10 µM [10]: 0%; pKi [7]: 7.40; pKi [8]: 6.74; pKi [9]: 5.39; pKi [11]: 5.84 |
| Fc1ccc(C(SCCN2CCN(c3ccncc3)CC2)c2ccc(F)cc2)cc1 | 1 | 7.04 | 6.87 | pKi [5]: 6.97; pKi [7]: 6.49; pKi [8]: 6.41; pKi [11]: 5.39 |
| C[C@H](O)CN1CCC(CC[S+]([O-])C(c2ccc(F)cc2)c2ccc(F)cc2)CC1 (some centres not stated) | 37 | 6.42 | 4.84 | – |
| COc1ccc(CC(O)CN2CCCN(CC[S+]([O-])C(c3ccc(F)cc3)c3ccc(F)cc3)CC2)cc1 (configuration not stated) | 80 | 7.48 | 5.57 | remaining at 1 h, 10 µM [10]: 20% |
| CC(F)CN1[C@H](C)CN(CC[S+]([O-])C(c2ccc(F)cc2)c2ccc(F)cc2)C[C@@H]1C (some centres not stated) | > 95 | 5.98 | < 4.00 | – |
| Fc1ccc(C(SCCN2CCCN(c3ncccn3)CC2)c2ccc(F)cc2)cc1 | 1 | 6.29 | 6.14 | – |
